Reference: PubChem BioAssay AID330 (DTP/NCI, 2004)
Values joined by “and” are separate entries in the source; they are usually repeats but may differ in a detail not shown here. Equal entries are not always repeated. Toxic doses and inconclusive results are not listed. Rule for the calls: active = survival T/C of 150% or more; inactive = T/C below 125% in these data.

System: P388 leukemia ip, CD2F1 mice, survival T/C
Assay: NCI In Vivo Anticancer Drug Screen. Data for tumor model P388 Leukemia (intraperitoneal) in CD2F1 (CDF1) mice
Conditions: endpoint: median survival time, higher = longer survival
How it was run: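 Mice carrying the transplanted tumor received test compound or vehicle. Survival was recorded in each group, and the value is the treated-group measurement divided by that of the vehicle-treated control group.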

[1] = dose: 25.0 mg/kg/injection, schedule: Q01DX009 (ip), vehicle: saline with Tween-80
[2] = dose: 50.0 mg/kg/injection, schedule: Q01DX009 (ip), vehicle: saline with Tween-80
[3] = dose: 60.0 mg/kg/injection, schedule: Q01DX005 (ip), vehicle: saline with Tween-80
[4] = dose: 120.0 mg/kg/injection, schedule: Q01DX005 (ip), vehicle: saline with Tween-80
[5] = dose: 240.0 mg/kg/injection, schedule: Q01DX005 (ip), vehicle: saline with Tween-80
[6] = dose: 100.0 mg/kg/injection, schedule: Q01DX009 (ip), vehicle: saline with Tween-80
[7] = dose: 200.0 mg/kg/injection, schedule: Q01DX009 (ip), vehicle: saline with Tween-80

Measured: T/C

Cc1c2cc[n+](CCCCCCCC[n+]3ccc4c(C)c5[nH]c6ccccc6c5cc4c3C)c(C)c2cc2c1[nH]c1ccccc12
inactive: dose: 0.78 mg/kg/injection, schedule: Q04DX003 (ip), vehicle: distilled water + Tween-80 106 % of control | dose: 1.56 mg/kg/injection, schedule: Q04DX003 (ip), vehicle: distilled water + Tween-80 106 % of control | dose: 3.13 mg/kg/injection, schedule: Q04DX003 (ip), vehicle: distilled water + Tween-80 109 % of control | dose: 6.25 mg/kg/injection, schedule: Q04DX003 (ip), vehicle: distilled water + Tween-80 103 % of control and 113 % of control | dose: 12.5 mg/kg/injection, schedule: Q04DX003 (ip), vehicle: distilled water + Tween-80 105 % of control and 116 % of control and 122 % of control | dose: 25.0 mg/kg/injection, schedule: Q04DX003 (ip), vehicle: distilled water + Tween-80 116 % of control and 121 % of control and 123 % of control | dose: 100.0 mg/kg/injection, schedule: Q04DX003 (ip), vehicle: distilled water + Tween-80 121 % of control

CCN(CCc1ccc(N)cc1)C(Cc1ccccc1)c1cccc(OC)c1 (configuration not stated)
inactive: dose: 12.5 mg/kg/injection, schedule: Q01DX009 (ip), vehicle: saline with Tween-80 95 % of control | [1] 95 % of control | [2] 87 % of control

COc1ccc(C2COc3cc(O)c(O)cc3C2)cc1 (configuration not stated)
inactive: [3] 97 % of control | [4] 107 % of control | [5] 97 % of control

CN1CCN(c2cc3nc[nH]c(=O)c3cc2[N+](=O)[O-])CC1
inactive: dose: 50.0 mg/kg/injection, schedule: Q04DX003 (ip), vehicle: Klucel (hydroxypropylcellulose) (HPC) 99 % of control | dose: 100.0 mg/kg/injection, schedule: Q04DX003 (ip), vehicle: Klucel (hydroxypropylcellulose) (HPC) 104 % of control

C[N+](C)(C)/C=C/c1ccc([N+](=O)[O-])o1
inactive: dose: 50.0 mg/kg/injection, schedule: Q01DX009 (ip), vehicle: suspension in saline 100 % of control | dose: 100.0 mg/kg/injection, schedule: Q01DX009 (ip), vehicle: suspension in saline 96 % of control

CCC[CH2][Sn]([CH2]CCN(C)C)([CH2]CCN(C)C)[CH2]CCN(C)C
inactive: [2] 100 % of control | [6] 107 % of control

CC(C)(C)OC(=O)C(N(Cc1ccccc1)Cc1ccccc1)N(Cc1ccccc1)Cc1ccccc1
inactive: [3] 88 % of control | [4] 88 % of control | [5] 86 % of control

Cc1ccc(CNc2ccc(I)cc2)cc1
inactive: dose: 100.0 mg/kg/injection, schedule: Q01DX009 (ip), vehicle: other 104 % of control | dose: 200.0 mg/kg/injection, schedule: Q01DX009 (ip), vehicle: other 95 % of control | dose: 400.0 mg/kg/injection, schedule: Q01DX009 (ip), vehicle: other 95 % of control

c1ccc(-c2ncc[nH]2)cc1
inactive: dose: 100.0 mg/kg/injection, schedule: Q01DX001 (ip), vehicle: saline with Tween-80 98 % of control | dose: 200.0 mg/kg/injection, schedule: Q01DX001 (ip), vehicle: saline with Tween-80 97 % of control

CSc1nc(N)c(NS(=O)(=O)c2ccc([N+](=O)[O-])cc2)c(=O)[nH]1
inactive: dose: 15.0 mg/kg/injection, schedule: Q01DX005 (ip), vehicle: Klucel (hydroxypropylcellulose) (HPC) 99 % of control | dose: 30.0 mg/kg/injection, schedule: Q01DX005 (ip), vehicle: Klucel (hydroxypropylcellulose) (HPC) 87 % of control | dose: 60.0 mg/kg/injection, schedule: Q01DX005 (ip), vehicle: Klucel (hydroxypropylcellulose) (HPC) 91 % of control and 93 % of control

CCOP(=O)(CC1OCC2(CO1)COC(CP(=O)(OCC)OCC)OC2)OCC (configuration not stated)
inactive: dose: 12.5 mg/kg/injection, schedule: Q01DX009 (ip), vehicle: saline 87 % of control | dose: 25.0 mg/kg/injection, schedule: Q01DX009 (ip), vehicle: saline 94 % of control | dose: 50.0 mg/kg/injection, schedule: Q01DX009 (ip), vehicle: saline 101 % of control and 92 % of control | dose: 100.0 mg/kg/injection, schedule: Q01DX009 (ip), vehicle: saline 106 % of control | dose: 200.0 mg/kg/injection, schedule: Q01DX009 (ip), vehicle: saline 100 % of control

O=C(CCl)NCc1ccc([N+](=O)[O-])cc1
inactive: [1] 108 % of control | [2] 112 % of control | [6] 108 % of control | [7] 103 % of control

C/C(=C1\N=C(c2ccccc2)OC1=O)c1ccccc1
inactive: dose: 50.0 mg/kg/injection, schedule: Q01DX005 (ip), vehicle: saline with Tween-80 96 % of control | dose: 100.0 mg/kg/injection, schedule: Q01DX005 (ip), vehicle: saline with Tween-80 92 % of control | dose: 200.0 mg/kg/injection, schedule: Q01DX005 (ip), vehicle: saline with Tween-80 95 % of control

CC(=O)C1C(=O)C(=O)N(c2ccc(O)c(C(=O)O)c2)C1=O (configuration not stated)
inactive: dose: 100.0 mg/kg/injection, schedule: Q04DX002 (ip), vehicle: saline with Tween-80 100 % of control | dose: 200.0 mg/kg/injection, schedule: Q04DX002 (ip), vehicle: saline with Tween-80 94 % of control | dose: 400.0 mg/kg/injection, schedule: Q04DX002 (ip), vehicle: saline with Tween-80 93 % of control

Fc1ccc(Oc2ccc(F)cc2)cc1
inactive: dose: 50.0 mg/kg/injection, schedule: Q04DX003 (ip), vehicle: saline with Tween-80 106 % of control | dose: 100.0 mg/kg/injection, schedule: Q04DX003 (ip), vehicle: saline with Tween-80 107 % of control | dose: 200.0 mg/kg/injection, schedule: Q04DX003 (ip), vehicle: saline with Tween-80 111 % of control | dose: 400.0 mg/kg/injection, schedule: Q04DX003 (ip), vehicle: saline with Tween-80 109 % of control

CS(=O)(=O)c1cc(C(=O)O)cc(NCc2ccccc2)c1Oc1ccccc1
inactive: [2] 106 % of control | [6] 96 % of control | [7] 102 % of control

Cc1ccc(NC(=O)C#N)cc1
inactive: dose: 15.0 mg/kg/injection, schedule: Q01DX005 (ip), vehicle: saline with Tween-80 107 % of control | dose: 30.0 mg/kg/injection, schedule: Q01DX005 (ip), vehicle: saline with Tween-80 96 % of control

Cc1cc(Br)c2c(c1)C(C(F)(F)F)(C(F)(F)F)OC(C)(C)N2
inactive: dose: 50.0 mg/kg/injection, schedule: Q01DX009 (ip), vehicle: Klucel (hydroxypropylcellulose) (HPC) 94 % of control | dose: 100.0 mg/kg/injection, schedule: Q01DX009 (ip), vehicle: Klucel (hydroxypropylcellulose) (HPC) 100 % of control | dose: 200.0 mg/kg/injection, schedule: Q01DX009 (ip), vehicle: Klucel (hydroxypropylcellulose) (HPC) 101 % of control
